Assay results taken from patent US5284826A, “0-hydroxyethyl and acyloxyethyl derivatives of [ser]^8 cyclosporins” (Sandoz Ltd., priority 1989, dated 1994).

Test: Stability of solid-state forms
Type: physicochemical
Conditions: B form (hydrate from acetone/water) compared with amorphous form and A and C modifications
Excerpt: Cyclosporins according to the invention may exist in the solid state in amorphous form or in one or more crystalline forms. For example, the compound of Example 2 below exists in amorphous form or in at least three crystalline forms, distinguishable by X-ray diffraction and designated the A, B and C modifications.

## C/C=C/C[C@@H](C)[C@@H](O)[C@H]1C(=O)N[C@@H](CC)C(=O)N(C)CC(=O)N(C)[C@@H](CC(C)C)C(=O)N[C@@H](C(C)C)C(=O)N(C)[C@@H](CC(C)C)C(=O)N[C@@H](C)C(=O)N[C@H](COCCO)C(=O)N(C)[C@@H](CC(C)C)C(=O)N(C)[C@@H](CC(C)C)C(=O)N(C)[C@@H](C(C)C)C(=O)N1C [Example 2, [O-(2-hydroxyethyl)(D)Ser]^8 -Ciclosporin]
  stability of crystal form: most stable
